The text below walks through data of PMC5871694, “S-Adenosyl-L-Homocysteine Hydrolase Inhibition by a Synthetic Nicotinamide Cofactor Biomimetic” (Frontiers in Microbiology, 2018).

One series has as its target bovine liver SAHase. Set-up: method as in Porter and Boyd, 1992. The note with it: cited from earlier work.
Series [1] deals with T1, Bradyrhizobium elkanii SAHase (BeSAHase) (Bradyrhizobium elkanii, UniProt A0A087WNH6).
T1 construct: His-tag (N); made in house; host or cells: E. coli
T1 sequence (A0A087WNH6 1-473): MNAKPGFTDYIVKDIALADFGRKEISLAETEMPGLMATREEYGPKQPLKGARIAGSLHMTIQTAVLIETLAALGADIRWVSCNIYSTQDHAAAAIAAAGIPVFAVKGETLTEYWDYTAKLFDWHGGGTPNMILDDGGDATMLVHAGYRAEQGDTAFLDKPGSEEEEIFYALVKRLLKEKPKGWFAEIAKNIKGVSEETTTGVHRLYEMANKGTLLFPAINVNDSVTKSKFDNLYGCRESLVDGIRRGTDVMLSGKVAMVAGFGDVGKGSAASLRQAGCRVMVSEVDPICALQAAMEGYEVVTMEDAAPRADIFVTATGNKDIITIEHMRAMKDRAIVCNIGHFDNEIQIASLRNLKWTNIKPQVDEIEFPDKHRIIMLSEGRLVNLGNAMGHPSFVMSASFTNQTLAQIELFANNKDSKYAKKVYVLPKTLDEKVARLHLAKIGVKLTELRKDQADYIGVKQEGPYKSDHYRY
Briefly: Isothermal titration calorimetry (ITC). In kind it is binding. As to conditions: for KD: apo-BeSAHase titrated with cofactor, 25°C, pH 7; for binding to apo-BeSAHase: titration of apo-BeSAHase; for binding to holo-BeSAHase: titration of holo-BeSAHase. On the procedure:
Interaction analyses by ITC were performed with an Affinity ITC microcalorimeter (Low Volume, 24 K Gold Cell; TA Instruments). Prior to measurements, protein was dialyzed into 20 mM MOPS buffer containing 150 mM NaCl. The buffer was adjusted to pH 7 at room temperature, but dialysis was carried out at 4°C. To ensure equal buffer conditions, ligands were dissolved and diluted in the same buffer that was used for the last step of protein dialysis. Measurements were carried out at a constant cell temperature of 25°C. The cell was equilibrated with 40–90 μM SAHase for at least 10 min before the first injection of the respective ligand. The volume of the injections was varied between 2 and 4 μL, depending on the experiment and ligand concentration. The spacing between injections was adjusted according to the time required to reach the binding equilibrium (usually 240–500 s). Ligand titration was continued until peak sizes remained constant, representing only the enthalpy of dilution. The latter was subtracted from the raw data using a mock titration of the ligand into buffer only. Data evaluation was performed with the NanoAnalyze software (v. 3.7.5; TA Instruments), using the model “independent set of multiple binding sites” ([Freire et al., 1990]) for KD determination.

Another series deals with SAHase from humans. Further details: method as in Li Q.-S. et al., 2007. The note with it: human SAHase; ref Li Q.-S. et al., 2007; cited from earlier work.
The target of series [2] is SAHase from Trypanosoma cruzi. Set-up: method as in Li Q.-S. et al., 2007. As to conditions: ref Li Q.-S. et al., 2007; cited from earlier work.
Series [3] deals with T1, Bradyrhizobium elkanii SAHase (BeSAHase). In words: HPLC-based endpoint activity assay in the direction of SAH synthesis. The series is classed as biochemical. On the procedure: HPLC-based activity measurements in the direction of SAH synthesis were carried out as described by [Kailing et al. (2017)], with constant substrate concentrations (0.5 mM) of both Ado and Hcy. For the cofactor screenings, the assay was supplemented with 2 mM of the respective compound and reactions were initiated with ∼10 μg (700 nM final concentrations in assay) of apo- or holo-BeSAHase, respectively. One set of reactions was terminated after 30 min, the other after 17 h. […] Reactions were terminated after 30 min. Conversions were derived from HPLC chromatograms as described before ([Kailing et al., 2017]), plotted against the concentration of inhibitor and a linear regression analysis was performed with the GraphPad Prism software (v. 6.01). The IC50 was calculated as the concentration leading to half-maximum effect of the inhibitor.

Series [4] shares this target. Briefly: Photometric DTNB kinetic assay in the hydrolytic direction (SAH hydrolysis). In kind it is biochemical. On the procedure: Reactions were performed at room temperature in 100 μL sodium phosphate buffer (100 mM, pH 8), supplemented with 1 mM EDTA, 0.2 mM 5,5′-dithiobis(2-nitrobenzoic acid) (DTNB) and SAHase. In experiments with defined NAD^+ concentrations, apo-SAHase was pre-incubated with the respective amount of cofactor for at least 2 h, to ensure that the binding equilibrium was reached before initiation of the reaction. Enzyme concentrations were adjusted according to specific activity, to avoid exceeding maximum reaction rates (vmax) of 0.01 mM⋅min^-1. Higher reaction rates would lead to product inhibition, caused by the accumulation of Ado, in the time frame of the measurement. Reactions were initiated by addition of the substrate (SAH). The reaction rate was monitored photometrically, using DTNB to detect the formation of Hcy. Experiments were carried out in a double-beam UV-vis spectrophotometer (Specord 205, Analytik Jena). Initial reaction rates (v0) were calculated from the first 20–25 s of the reaction, based on the increase of extinction (ΔE) at 412 nm over time (Δt) in a quartz cuvette with a path length (d) of 1 cm, assuming an extinction coefficient (ε) of 14,150 L cm^-1 mol^-1 for the product: v0 = ΔE ⋅ ε412 nm–1 ⋅ d^-1 ⋅ Δt^-1. The assay was validated by comparison to data obtained with the coupled photometric assay described by [Kailing et al. (2017)]. The latter assay was not used in this study, since NCB 10 contributes to oxidation of the monitoring compound NADH in a non-enzymatic way, thereby compromising the reliability of the measurement.
Initial reaction rates were plotted against the concentration of inhibitor and a linear regression analysis was performed as described above for the HPLC assay. The inhibitory constant (Ki) was calculated from the following relation, where KM, [E] and [S] denote the Michaelis–Menten constant, concentration of enzyme and of substrate, respectively: IC50 = Ki ⋅ KM–1 ) + [E]0/2 ([Cha, 1975]). Characterization of the inhibition model was done by measuring Michaelis–Menten kinetics in the presence of varying inhibitor concentrations. KM and maximum reaction rate (vmax) values were obtained by non-linear Michaelis–Menten fitting using GraphPad Prism.
Kinetic-based binding studies to determine the half-maximum effective concentration (EC50) for NAD^+ were carried out with 330 nM SAHase, after pre-incubation with the respective amount of NAD^+, and constant substrate concentrations (0.2 mM SAH). Initial reaction rates were plotted against the NAD^+ concentration and a hyperbolic fit was calculated using GraphPad Prism. The EC50 was calculated as the NAD^+ concentration leading to half-maximum activation of BeSAHase.

The conditions of series [5]: physiological pH, cited from earlier work.
Setting [6] is: ref Porter and Boyd, 1992, read-out: KD (estimated).
Where [7] appears, read: calculated from IC50, KM, enzyme and substrate concentration.

Each structure is given as a SMILES string. Where “and” joins values, the source holds several entries; their conditions need not be identical. Equal entries are not always repeated. Where two headings read alike, the source gives them in different places.

As usually defined, the Kd is a measure of binding affinity in units of concentration. With `Nc1ncnc2c1ncn2C1OC(CO)C(=O)C1O` (stereo not shown) [3′-ketoadenosine], the Kd on bovine liver SAHase (setting [6]) is 0.6 nM.
Take `C=C1OC(n2cnc3c(N)ncnc32)C(O)C1=O` (stereo not shown) [4′,5′-dehydro-3′-ketoadenosine]: the Kd on bovine liver SAHase (setting [6]) was 0.3 nM.
For `Nc1ncnc2c1ncn2[C@@H]1O[C@H](CO)[C@@H](O)[C@H]1O` [Ado, adenosine], the equilibrium dissociation constant (Kd) on bovine liver SAHase (ref Porter and Boyd, 1992, read-out: KD) was 9000 nM.
With `NC(=O)C1=CN([C@@H]2O[C@H](COP(=O)(O)OP(=O)(O)OC[C@H]3O[C@@H](n4cnc5c(N)ncnc54)[C@H](O)[C@@H]3O)[C@@H](O)[C@H]2O)C=CC1` [NADH], the KD entry in series [1] is “low micromolar range”. For the same compound, the KD range entry (on SAHase from humans; in series [2]) was “nanomolar” in each case.
Broadly, the EC50 is the concentration that produces a half-maximal response. As for `NC(=O)c1ccc[n+]([C@@H]2O[C@H](COP(=O)([O-])OP(=O)(O)OC[C@H]3O[C@@H](n4cnc5c(N)ncnc54)[C@H](O)[C@@H]3O)[C@@H](O)[C@H]2O)c1` [NAD^+, nicotinamide adenine dinucleotide, reference compound], the “reconstitution of activity of apo-SAHase” value in series [3] (apo-BeSAHase, 2 mM compound, 0.5 mM Ado and Hcy, 30 min and 17 h) is reported as “recovered highly active enzyme”. For the same compound, the “time to full substrate conversion after re-supplementation of apo-SAHase” value in series [3] (apo-BeSAHase, HPLC-based assay conditions) is given as “less than 30 min”. Moreover, the EC50 in series [4] (330 nM apo-SAHase pre-incubated with NAD+, 0.2 mM SAH, hyperbolic fit, read-out: EC50 (half-maximum activation of BeSAHase)) is ~10 µM and 11.2 µM. Also, in series [1], the KD result was “low micromolar range”. Besides, the redox potential in series [5] (NAD+/NADH, ref Burton and Wilson, 1953) was -320 mV.
Broadly, the IC50 is the midpoint of a concentration-inhibition curve. The term inhibition denotes the percentage by which the read-out fell short of the control. Usually Ki stands for the equilibrium dissociation constant of an inhibitor or competing ligand from its target. As for `N#Cc1ccc[n+](Cc2ccccc2)c1` [NCB 10], the IC50 is ~1.4 mM and 1.44 mM in series [3] (100 nM NAD+-saturated SAHase, 0.5 mM Ado and Hcy, 30 min, linear regression); ~14 mM and 14.4 mM in series [4] (285 nM NAD+-saturated BeSAHase, 0.2 mM SAH, linear regression). The inhibition at 2000 µM in series [3] (holo-SAHase in the presence of excess NAD+, 2 mM compound, read-out: inhibition of substrate conversion) was about 75%. Besides, the inhibition mechanism result in series [4] (Michaelis-Menten kinetics with varying inhibitor concentrations) is “non-competitive”. In addition, the Ki in series [4] (setting [7]) was about 2 mM. In addition, the “Ki,hydrolysis” value in series [4] (setting [7]) is “millimolar range”. Besides, the “binding to apo-BeSAHase” value in series [1] is “small binding enthalpies”; in series [1] (listed as 10), “Neither titration of holo-, nor of apo-SAHase gave any hint of a binding event”. The “binding to holo-BeSAHase” value in series [1] was “small binding enthalpies”; in series [1] (listed as 10), “Neither titration of holo-, nor of apo-SAHase gave any hint of a binding event”. The redox potential in series [5] (10ox/10red, ref Ostovic et al., 1985) is -220 mV.
